The values below come from ChEMBL document CHEMBL5584362, “Sucurchalasins A and B, Sulfur-Containing Heterodimers of a Cytochalasan and a Macrolide from the Endophytic Fungus Aspergillus spelaeus GDGJ-286” (J Nat Prod, 2024).

One experiment deals with Salmonella typhi. In words: Antibacterial activity against Salmonella typhi at 25 ug/ml measured after 20 to 45 mins by broth microdilution method. It counts as functional, organism-based. The settings on record: Salmonella enterica subsp. enterica serovar Typhi; dose 25.0 µg/ml, time 20-45 min.
The test system of experiment [1] is A2780. In words: Cytotoxicity against human A2780 cells by MTT assay. In kind it is functional, cell-based.
The next experiment has as its system SK-OV-3. Briefly: Cytotoxicity against human SK-OV-3 cells by MTT assay. In kind it is functional, cell-based.
In another experiment the test system is HeLa. In words: Cytotoxicity against human HeLa cells by MTT assay. In kind it is functional, cell-based.
In a further experiment the test system is HepG2. Briefly: Cytotoxicity against human HepG2 cells by MTT assay. It counts as functional, cell-based.
Experiment [2] deals with A2780. In words: Induction of apoptosis in human A2780 cells assessed as chromatin condensation at 1 to 9 uM measured after 48 hrs by Hoechst 33258 staining based assay. It counts as functional, cell-based. The settings on record: dose 1-9 µM.
Experiment [3] concerns A2780. In words: Induction of apoptosis in human A2780 cells assessed as chromatin fragmentation at 1 to 9 uM measured after 48 hrs by Hoechst 33258 staining based assay. In kind it is functional, cell-based. The settings on record: dose 1-9 µM.
Experiment [4] concerns A2780. In words: Induction of apoptosis in human A2780 cells assessed as increase in early apoptotic cells measured after 48 hrs by Annexin V-FITC/PI staining based FACS analysis. The settings on record: dose 1-9 µM. It counts as functional, cell-based.
Experiment [5] deals with A2780. In words: Induction of apoptosis in human A2780 cells assessed as increase in late apoptotic cells measured after 48 hrs by Annexin V-FITC/PI staining based FACS analysis. It counts as functional, cell-based. As to conditions: dose 1-9 µM.
For experiment [6], the system named is A2780. In words: Induction of apoptosis in human A2780 cells assessed as viable cells at 1 uM measured after 48 hrs by Annexin V-FITC/PI staining based FACS analysis (reference value: 92.6 to 92.8%). It counts as functional. The settings on record: read-out: Activity.
The subject of experiment [7] is A2780. Briefly: Induction of apoptosis in human A2780 cells assessed as early apoptotic cells at 1 uM measured after 48 hrs by Annexin V-FITC/PI staining based FACS analysis (reference value: 1.68 to 1.9%). In kind it is functional.
Experiment [8] deals with A2780. Briefly: Induction of apoptosis in human A2780 cells assessed as late apoptotic cells at 1 uM measured after 48 hrs by Annexin V-FITC/PI staining based FACS analysis (reference value: 2.32 to 2.4%). In kind it is functional.
Experiment [9] relates to A2780. In words: Induction of apoptosis in human A2780 cells assessed as necrotic cells at 1 uM measured after 48 hrs by Annexin V-FITC/PI staining based FACS analysis (reference value: 1.34 to 3.3%). It counts as functional.
Experiment [10] relates to A2780. Briefly: Induction of apoptosis in human A2780 cells assessed as viable cells at 3 uM measured after 48 hrs by Annexin V-FITC/PI staining based FACS analysis (reference value: 92.6 to 92.8%). In kind it is functional. The settings on record: read-out: Activity.
For experiment [11], the system named is A2780. In words: Induction of apoptosis in human A2780 cells assessed as early apoptotic cells at 3 uM measured after 48 hrs by Annexin V-FITC/PI staining based FACS analysis (reference value: 1.68 to 1.9%). It counts as functional.
In experiment [12] the test system is A2780. In words: Induction of apoptosis in human A2780 cells assessed as late apoptotic cells at 3 uM measured after 48 hrs by Annexin V-FITC/PI staining based FACS analysis (reference value: 2.32 to 2.4%). It counts as functional.
Experiment [13] concerns A2780. In words: Induction of apoptosis in human A2780 cells assessed as necrotic cells at 3 uM measured after 48 hrs by Annexin V-FITC/PI staining based FACS analysis (reference value: 1.34 to 3.3%). It counts as functional.
For experiment [14], the system named is A2780. Briefly: Induction of apoptosis in human A2780 cells assessed as viable cells at 9 uM measured after 48 hrs by Annexin V-FITC/PI staining based FACS analysis (reference value: 92.6 to 92.8%). It counts as functional. The settings on record: read-out: Activity.
Experiment [15] concerns A2780. In words: Induction of apoptosis in human A2780 cells assessed as early apoptotic cells at 9 uM measured after 48 hrs by Annexin V-FITC/PI staining based FACS analysis (reference value: 1.68 to 1.9%). It counts as functional.
Experiment [16] concerns A2780. In words: Induction of apoptosis in human A2780 cells assessed as late apoptotic cells at 9 uM measured after 48 hrs by Annexin V-FITC/PI staining based FACS analysis (reference value: 2.32 to 2.4%). It counts as functional.
In experiment [17] the test system is A2780. In words: Induction of apoptosis in human A2780 cells assessed as necrotic cells at 9 uM measured after 48 hrs by Annexin V-FITC/PI staining based FACS analysis (reference value: 1.34 to 3.3%). In kind it is functional.
Experiment [18] relates to Shigella dysenteriae. Briefly: Antibacterial activity against Shigella dysenteriae measured after 20 to 45 mins by broth microdilution method. In kind it is functional. The settings on record: time 20-45 min.
The test system of a further experiment is Enterococcus faecalis. In words: Antibacterial activity against Enterococcus faecalis measured after 20 to 45 mins by broth microdilution method. As to conditions: time 20-45 min. It counts as functional.
A further experiment relates to Bacillus subtilis. In words: Antibacterial activity against Bacillus subtilis measured after 20 to 45 mins by broth microdilution method. It counts as functional. The settings on record: time 20-45 min.
For the next experiment, the system named is Vibrio parahaemolyticus. Briefly: Antibacterial activity against Vibrio parahaemolyticus at 25 ug/ml measured after 20 to 45 mins by broth microdilution method. In kind it is functional, organism-based. As to conditions: dose 25.0 µg/ml, time 20-45 min.
A further experiment has as its system Staphylococcus aureus. In words: Antibacterial activity against Staphylococcus aureus at 25 ug/ml measured after 20 to 45 mins by broth microdilution method. It counts as functional, organism-based. The settings on record: dose 25.0 µg/ml, time 20-45 min.
In the next experiment the test system is Escherichia coli. Briefly: Antibacterial activity against Escherichia coli at 25 ug/ml measured after 20 to 45 mins by broth microdilution method. In kind it is functional, organism-based. As to conditions: dose 25.0 µg/ml, time 20-45 min.
Experiment [19] relates to Shigella dysenteriae. In words: Antibacterial activity against Shigella dysenteriae at 25 ug/ml measured after 20 to 45 mins by broth microdilution method. The settings on record: dose 25.0 µg/ml, time 20-45 min. It counts as functional, organism-based.

Converted amounts (≈) assume the structure as drawn. The source made the active and inactive calls. No cut-off for these calls is given here.

As to `CC1=C[C@@H]2/C=C(\C)CC[C@@H](O)C(=O)C[C@@H](S[C@@H]3CCC[C@H](C)OC(=O)Cc4cc(O)cc(O)c4C(=O)C3)C(=O)[C@]23C(=O)N[C@@H](CC(C)C)[C@@H]3[C@@H]1C`, the result in the experiment with Salmonella typhi, with Vibrio parahaemolyticus, in the experiment with Staphylococcus aureus and in the experiment with Escherichia coli was inactive. For the same compound, the IC50 amounted to 3.9 µM with A2780 [1], 13 µM in the experiment on SK-OV-3, 10 µM with HeLa and 15 µM with HepG2. For the same compound, the outcome in the experiment on A2780 [2] and in the experiment with A2780 [3] was Active. Besides, the Activity entry with A2780 [4] was “Dose-Dependent Effect”; with A2780 [5], “Dose-Dependent Effect”; with A2780 [7] it was 1.35%; with A2780 [8], 1.71%; in the experiment on A2780 [9] it was 2.91%; in the experiment with A2780 [11], 4.85%. Further, the Activity amounted to 2.87% in the experiment with A2780 [12]; 1.38% in the experiment with A2780 [13]; 56.8% with A2780 [15]; 14.9% in the experiment on A2780 [16]; 1.19% in the experiment with A2780 [17]. Moreover, the viability at 1 µM in the experiment on A2780 [6] stood at 94%. Also, in the experiment with A2780 [10], the viability at 3 µM is 90.9%. In the experiment with A2780 [14], the viability at 9 µM is 27.1%. Also, the MIC with Shigella dysenteriae [18] turned out to be 13 µg/mL (≈ 18 µM); with Enterococcus faecalis, 3.1 µg/mL (≈ 4.28 µM); against Bacillus subtilis, 6.3 µg/mL (≈ 8.7 µM).
Turning to `CC1=C[C@@H]2/C=C(\C)CC[C@@H](O)[C@@H](O)/C=C/C(=O)[C@]23C(=O)N[C@@H](CC(C)C)[C@@H]3[C@@H]1C`, the result in the experiment on Salmonella typhi, with Shigella dysenteriae [19], with Vibrio parahaemolyticus, in the experiment with Staphylococcus aureus and in the experiment on Escherichia coli was inactive. Moreover, the half-inhibitory concentration (IC50) in the experiment on A2780 [1], with SK-OV-3, in the experiment with HeLa and with HepG2 was greater than 20 µM each time. Moreover, the MIC in the experiment with Enterococcus faecalis and in the experiment on Bacillus subtilis was 6.3 µg/mL (≈ 15.7 µM) throughout.
